Data set [1] is described as follows: Paired-label study: thyroid and stomach uptake of [125I]INA and [131I]iodide in mice. Type of data set: in vivo. An excerpt:
When radioiodine is released from proteins following in vivo administration, loss of label occurs (dehalogenation). Since free iodide is taken up avidly by the thyroid and, at early time points, localizes in the stomach, uptake of radioiodine by these tissues is often used as an indicator of dehalogenation in vivo.
(§1) The method of choice for comparing the pharmacokinetics of two radioiodinated products (or two samples of the same compound, each sample radioiodinated using a different method) is to administer both to the same group of animals, labeling the first with ^125 I and the second with ^131 I. By performing "paired-label" experiments, one can correct for systematic errors such as incomplete thyroid sampling (less than 10 mg in a mouse) which could make […] comparisons difficult.
(§2) In the first paired-label study, groups of mice were injected with both [^131 ]iodide and 5-^125 I]iodonicotinic acid (hereinafter INA), the labeled substrate which is attached to proteins in the SPC procedure.

For data set [2] the following is noted: aqueous solution; background; cited from earlier work.
For data set [3] the following is noted: background; cited from earlier work.
A short description of data set [4]: Whole body clearance of INA and iodide (FIG. 1). Type of data set: in vivo, mice. To be noted: vs iodide. The procedure: as §1, §2
One approach for decreasing the retention of a nuclide in normal tissues following the administration of labeled antibodies is to couple the isotope in a chemical form which will be excreted rapidly after antibody catabolism. Degradation of antibodies labeled using the SPC method should result in the production of 5-iodonicotinic acid (INA).

As to `I` [Iodide, [^131 I]iodide, reference compound], the Stomach uptake in data set [1] (1 hr after injection) is recorded as 16.56 ± 8.10 percentages of the injected do; in data set [1] (2 hr after injection), 12.61 ± 7.33 percentages of the injected do; in data set [1] (4 hr after injection) it was 3.53 ± 0.74 percentages of the injected do; in data set [1] (6 hr after injection) it was 4.16 ± 1.82 percentages of the injected do; in data set [1] (24 hr after injection) it was 0.06 ± 0.02 percentages of the injected do. For the same molecule, the Thyroid uptake in data set [1] (1 hr after injection) was 7.23 ± 1.27 percentages of the injected do; in data set [1] (2 hr after injection), 7.23 ± 1.39 percentages of the injected do; in data set [1] (4 hr after injection), 12.21 ± 3.27 percentages of the injected do; in data set [1] (6 hr after injection), 23.64 ± 4.95 percentages of the injected do; in data set [1] (24 hr after injection), 16.95 ± 4.98 percentages of the injected do.

As for `O=C(CCc1ccc(O)c([125I])c1)ON1C(=O)CCC1=O` [Bolton-Hunter], in data set [2], the “hydrolysis of the active ester” value was “rapid hydrolysis of the active ester in aqueous solution”.

On to `COC(=N)c1cc(I)c(O)c(I)c1` [Woods], for which, in data set [3], the “in vivo loss of radioiodine from the protein” value is listed as “in vivo loss of radioiodine from the protein”.

On to `O=C(O)c1cncc([125I])c1` [INA, 5-[^125 I]iodonicotinic acid], for which, in data set [4], the “whole body clearance compared with iodide” value is recorded as “considerably faster than iodide”. Besides, the “dehalogenation in vivo of INA template” value in data set [1] is “relatively inert to dehalogenation in vivo”. Also, the Stomach uptake in data set [1] (1 hr after injection) was 0.69 ± 0.40 percentages of the injected do; in data set [1] (2 hr after injection), 0.53 ± 0.41 percentages of the injected do; in data set [1] (4 hr after injection), 0.18 ± 0.03 percentages of the injected do; in data set [1] (6 hr after injection) it was 0.24 ± 0.10 percentages of the injected do; in data set [1] (24 hr after injection), 0.14 ± 0.01 percentages of the injected do. In addition, the Thyroid uptake was 0.13 ± 0.13 percentages of the injected do in data set [1] (1 hr after injection); 0.27 ± 0.09 percentages of the injected do in data set [1] (2 hr after injection); 0.44 ± 0.21 percentages of the injected do in data set [1] (4 hr after injection); 1.04 ± 0.24 percentages of the injected do in data set [1] (6 hr after injection); 0.67 ± 0.19 percentages of the injected do in data set [1] (24 hr after injection). Moreover, the “thyroid uptake of 125I (INA), times lower than 131I (iodide)” value in data set [1] (thyroid, 125I vs 131I) is on record as 23-56 times lower. The “percentages of the injected dose localizing in thyroid and, at early time points, stomach, compared with iodide” value in data set [1] (vs iodide) was “significantly lower than those observed with iodide”.

The values are drawn from US5302700A, “Radiohalogenation conjugate technology” (Duke University, priority 1988, dated 1994).
